# From patent US20050064470A1, “High throughput screening methods for identifying RNA binding compounds” (priority 2003, published 2005)
# Experiments:
# [1] = target: bulge-deleted (mut) TAR RNA; test: Fluorescence polarization anisotropy (FPA) binding to fluorescein-labeled bulge-deleted TAR RNA; set-up: species or system HIV-1; conditions: for Kd: FPA, 20 mM KCl, fluorescein-tagged bulge-deleted TAR RNA, room temperature
# Protocol: (§1) β-Peptide and mutant β-peptide binding affinities to TAR RNA were measured by fluorescence anisotropy method on a PTI (Photon Technology International) fluorescence spectrophotometer. A T-format setup based on two emission channels was used. The intensities of the parallel and perpendicular components simultaneously were obtained in one measurement using two separate detectors. The excitation side is a motorized Glan-Thompson polarizer and emission sides are two film polarizers placed in vertical and horizontal orientation, respectively. The anisotropy can be calculated from equation 1, [formula] • where III and I⊥ are fluorescence intensities observed when the emission polarizer is oriented parallel and perpendicular to the direction of the polarized excitation, respectively.
# (§2) The fluorescein-labeled TAR RNA (F-TAR, either wt TAR or bulge-less TAR, see FIG. 1) was excited at 490 nm and two polarized emissions were monitored at 512 nm. The slits were set at 8 nm for both excitation and emission light. The integration time was 20 seconds. All data were measured in a Sub-Micro cuvette (Starna Cell, Inc.) with a starting volume of 160 μL. Each addition of β-peptide/mutant β-peptide was followed by one-minute equilibration before the fluorescence signal was recorded. All experiments were done at room temperature and in a TKT buffer (TKT: 50 mM Tris-HCl, pH=7.4, 20 mM KCl and 0.02% Tween20). The initial concentration of F-TAR was around 25 nM. The stock concentration of β-peptide/mutant β-peptide for titration was 2 μM. The experiment was repeated three times independently. For every single point, five measurements were made and their average anisotropy value was used for calculation of the KD.
# (§3) The binding dissociation constant (KD) is determined by fitting the plot of anisotropy of F-TAR versus the concentration of the β-peptide using equation 3, [formula] • where A is the relative fluorescence anisotropy of dye-labeled TAR RNA. The capacity for binding, Cap, is the maximum binding ability of a small molecule. C is the total concentration of β-peptide added. a is a correction factor.
# [2] = target: wild-type TAR RNA; test: Fluorescence polarization anisotropy (FPA) binding to fluorescein-labeled wild-type TAR RNA; set-up: species or system HIV-1; conditions: for Kd / specificity for wild-type TAR over bulgeless TAR (in words) / affinity for TAR RNA (in words): FPA; for Kd: 20 mM KCl, fluorescein-tagged wild-type TAR RNA, room temperature, read-out: Kd wt TAR; for specificity for wild-type TAR over bulgeless TAR (in words): wild-type vs bulge-deleted TAR; for Binding Specificity (Kd (mutTAR)/Kd (wtTAR)): ratio of Kd for bulge-deleted TAR to Kd for wild-type TAR, in text as fold decrease of affinity
# Protocol: as §1, §2, §3
Substance,Kd [1],Kd [2],specificity for wild-type TAR over bulgeless TAR (in words) [2],Binding Specificity (Kd (mutTAR)/Kd (wtTAR)) [2],affinity for bulgeless TAR reduced compared to α-peptide 3 ([1]; compared to α-peptide 3),affinity for TAR RNA (in words) [2],affinity for wild-type TAR lower than that of α-peptide 3 ([2]; compared to α-peptide 3),Binding Specificity (Kd (mutTAR)/Kd (wtTAR)) ([2]; listed as β-peptide 1),dissociation constant ratio (Krel) relative to α-peptide 3 ([2]; value above 1.0 denotes stronger binding of the analogue relative to the native peptide)
"N-Tyr-Gly-Arg-Lys-Lys-Arg-Arg-Gln-Arg-Arg-Arg [α-TatR 3, reference compound]",1.1 ± 0.2 nM,1.8 ± 0.5 nM,little specificity,1,–,–,–,–,–
"β-amino acid oligomer (β-peptide) analogue of Tat 47-57 (YGRKKRRQRRR, SEQ ID NO:1) [wt β-peptide 1]",281 ± 68 nM,28 ± 4 nM,enhanced specificity,10,more than two orders of magnitude,nanomolar affinity,roughly 15 fold,about 10,0.072
β-peptide in which all arginine side chains have been replaced by lysine side chains (YGKKKKKQKKK; SEQ ID NO:2) [mut β-peptide 2],33 ± 2 nM,16 ± 2 nM,less specificity,2,–,high affinity,–,–,–
